The values below come from patent US5789412A, “Piperazides derived from arylpiperazine, processes for their preparation, their use as medicaments and pharmaceutical compositions comprising them” (Pierre Fabre Medicament, priority 1994, dated 1998).

One experiment has as its target T1, human 5HT1Dα receptor (Homo sapiens, UniProt P28221).
T1 construct: expressed in transfected cells
Briefly: Binding to human 5HT1Dα receptor ([3H]-5CT displacement). As to the method:
(§1) Human 5HT1Dα and 5HT1Dβ receptors were cloned according to the sequences published by M. Hamblin and M. Metcalf, Mol. Pharmacol., 40, 143 (1991) and Weinshenk et al., Proc. Natl. Acad. Sci. 89, 3630 (1992).
(§2) Transitory transfection and permanent transfection of the genes for these receptors was carried out in cell lines Cos-7 and CHO-K1 using an electroporator.
(§3) The binding of the derivatives of the present invention with the human 5HT1Dα, 5HT1Dβ and 5HT1A receptors was studied according to the method described by P. Pauwels and C. Palmier (Neuropharmacology, 33, 67, 1994).
(§4) The incubation media for these binding measurements comprise 0.4 ml of cell membrane preparation, 0.05 ml of a tritiated ligand [[3H]-5CT (final concentration: 2 nM) for the 5HT1Dα and 5HT1Dβ receptors and [3H]-8OH-DPAT (final concentration: 1 nM) for the 5HT1A receptor] and 0.05 ml of the test molecule (final concentrations of 0.1 nM to 1000 nM) or 10 μM (final concentration) of serotonin (5HT1Dα and 5HT1Dβ) or 1 μM (final concentration) of spiroxatrine (5HT1A).

The target of experiment [1] is T2, human 5HT1Dβ receptor (Homo sapiens, UniProt P28222).
T2 construct: expressed in transfected cells; host or cells: CHO-K1
T2 sequence (P28222 whole entry): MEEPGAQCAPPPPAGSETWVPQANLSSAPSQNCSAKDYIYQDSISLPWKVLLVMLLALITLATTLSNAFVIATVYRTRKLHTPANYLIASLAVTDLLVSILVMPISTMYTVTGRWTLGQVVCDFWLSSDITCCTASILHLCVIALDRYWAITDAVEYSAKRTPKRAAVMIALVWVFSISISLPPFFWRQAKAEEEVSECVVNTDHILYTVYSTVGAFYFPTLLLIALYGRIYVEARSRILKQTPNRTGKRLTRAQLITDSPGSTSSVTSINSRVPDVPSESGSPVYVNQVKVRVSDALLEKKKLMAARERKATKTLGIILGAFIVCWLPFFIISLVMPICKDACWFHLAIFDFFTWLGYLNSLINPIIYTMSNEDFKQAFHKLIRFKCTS
Briefly: Binding to human 5HT1Dβ receptor ([3H]-5CT displacement). On the procedure: as §1, §2, §3, §4

The target of another experiment is T3, human 5HT1A receptor (Homo sapiens, UniProt P08908).
T3 construct: host or cells: HeLa HA7
T3 sequence (P08908 1-422): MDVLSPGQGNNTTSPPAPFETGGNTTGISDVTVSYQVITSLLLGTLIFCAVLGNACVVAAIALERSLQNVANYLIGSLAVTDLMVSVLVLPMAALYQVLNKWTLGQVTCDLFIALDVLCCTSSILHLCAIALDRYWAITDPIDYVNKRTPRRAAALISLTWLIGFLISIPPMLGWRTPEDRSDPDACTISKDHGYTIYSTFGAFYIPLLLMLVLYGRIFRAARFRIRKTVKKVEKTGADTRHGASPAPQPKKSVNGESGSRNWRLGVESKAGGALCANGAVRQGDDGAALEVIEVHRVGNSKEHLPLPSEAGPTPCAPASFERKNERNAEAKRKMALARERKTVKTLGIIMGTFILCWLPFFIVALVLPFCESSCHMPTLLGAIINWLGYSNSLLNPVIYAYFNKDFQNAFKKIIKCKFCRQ
Briefly: Binding to human 5HT1A receptor ([3H]-8OH-DPAT displacement, HeLa HA7 cell line). The note with it: read-out: 5HT1A Ki (affinity for the receptors concerned). The text has this:
The binding of the derivatives of the present invention with the human 5HT1Dα, 5HT1Dβ and 5HT1A receptors was studied according to the method described by P. Pauwels and C.

In experiment [2] the target is T2, human 5HT1Dβ receptor. Briefly: Inhibition of forskolin-stimulated cyclic AMP formation mediated by human 5HT1Dβ receptor in transfected CHO-K1 cells (intrinsic agonist activity). The class given is cell-based. On the procedure:
as §1, §2
Inhibition of the formation of cyclic AMP (stimulated by forskolin) mediated by the human 5HT1Dβ receptor was studied in CHO-K1 cells transfected with the receptor according to the technique described beforehand for the 5HT1B receptor (P. Pauwels and C. Palmier, Neuropharmacology, 33, 67, 1994).
**Intrinsic agonist acitivity (inhibition of the formation of cyclic AMP
induced by forskolin in CHO--K1 cells).

Setting [3] is: [3H]-5CT 2 nM, cell membrane preparation, read-out: 5HT1Dα Ki (affinity for the receptors concerned).
[4] abbreviates: [3H]-5CT 2 nM, cell membrane preparation, read-out: 5HT1Dβ Ki (affinity for the receptors concerned).
Where [5] appears, read: [3H]-8OH-DPAT 1 nM, HeLa HA7 cell line.
Setting [6] is: CHO-K1 cells, forskolin stimulated, read-out: 5HT1Dβ EC50 (intrinsic agonist activity, inhibition of the formation of cyclic AMP induced by forskolin).

SMILES strings stand for the structures. Counter-ions that a name gives are not always drawn. Like-named read-outs stand apart in the source and are kept apart here.

T1 sequence (P28221 whole entry): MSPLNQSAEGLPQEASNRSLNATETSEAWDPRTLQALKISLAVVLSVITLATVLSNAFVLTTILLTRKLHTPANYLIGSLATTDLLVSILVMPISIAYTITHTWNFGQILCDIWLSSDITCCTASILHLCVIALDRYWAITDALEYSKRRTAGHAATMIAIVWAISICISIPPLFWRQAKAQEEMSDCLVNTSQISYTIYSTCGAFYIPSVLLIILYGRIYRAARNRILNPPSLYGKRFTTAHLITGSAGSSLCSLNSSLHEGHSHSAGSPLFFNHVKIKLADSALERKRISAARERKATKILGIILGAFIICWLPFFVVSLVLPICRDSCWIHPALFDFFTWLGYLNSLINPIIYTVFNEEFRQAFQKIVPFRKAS

As usually defined, the Ki is a measure of affinity in units of concentration, obtained from inhibition or displacement. Usually EC50 stands for the concentration that produces a half-maximal response. Consider `COc1ccc(NC(=O)N2CCN(c3ccc([N+](=O)[O-])cc3)CC2)cc1N1CCN(C)CC1` [Example 6, N-[4-[4-Methoxy-3-(4-methylpiperazin-1-yl)phenyl]-4-(p-nitrophenyl)piperazin-1-ylamide fumarate], for which the Ki at human 5HT1Dα receptor (setting [3]) is 114 nM; at human 5HT1Dβ receptor [1] (setting [4]) it was 5 nM; on human 5HT1A receptor (setting [5]), 457 nM. At human 5HT1Dβ receptor [2] (setting [6]), the EC50 is greater than 1000 nM.

For the compound `COc1ccc(NC(=O)N2CCN(c3ccc4c(c3)OCO4)CC2)cc1N1CCN(C)CC1` [Example 7, N-[4-Methoxy-3-(4-methylpiperazin-1-yl)phenyl]-4-(3,4-methylenedioxy)phenylpiperazin-1-ylamide difumarate], the Ki is 140 nM at human 5HT1Dα receptor (setting [3]), 8.2 nM on human 5HT1Dβ receptor [1] (setting [4]) and 786 nM on human 5HT1A receptor (setting [5]). The concentration giving a half-maximal response (EC50) on human 5HT1Dβ receptor [2] (setting [6]) was greater than 1000 nM.

Take `Cc1ccccc1N1CCN(C(=O)COc2ccc3cccc(N4CCN(C)CC4)c3c2)CC1` [Example 16, 2-[8-(4-Methylpiperazin-1-yl)naphthalen-2-yloxy]-1-(4-o-tolylpiperazin-1-yl)ethanone]: the inhibition constant (Ki) on human 5HT1Dα receptor (setting [3]) was 0.68 nM; on human 5HT1Dβ receptor [1] (setting [4]) it was 0.28 nM; on human 5HT1A receptor (setting [5]) it was 50 nM. Further, on human 5HT1Dβ receptor [2] (setting [6]), the EC50 was greater than 1000 nM.

On to `COc1ccc(NC(=O)N2CCN(c3ccccc3C#N)CC2)cc1N1CCN(C)CC1` [Example 8, N-[4-Methoxy-3-(4-methylpiperazin-1-yl)phenyl]-4-(o-cyanophenyl)piperazin-1-ylamide fumarate], for which the inhibition constant Ki stood at 120 nM at human 5HT1Dα receptor (setting [3]), 11.2 nM at human 5HT1Dβ receptor [1] (setting [4]) and 714 nM on human 5HT1A receptor (setting [5]). The EC50 on human 5HT1Dβ receptor [2] (setting [6]) was greater than 1000 nM.

Consider `COc1ccc(NC(=O)N2CCN(c3ccccc3OC)CC2)cc1N1CCN(C)CC1` [Example 2, N-[4-Methoxy-3-(4-methylpiperazin-1-yl)phenyl]-4-(o-methoxyphenyl)piperazin-1-ylamide fumarate], for which the figures for the Ki at human 5HT1Dα receptor (setting [3]) and on human 5HT1Dβ receptor [1] (setting [4]) were 68 nM and 2 nM, respectively. Further, the EC50 at human 5HT1Dβ receptor [2] (setting [6]) was greater than 1000 nM.

For `COc1ccc(NCC(=O)N2CCN(c3ccccc3C)CC2)cc1N1CCN(C)CC1` [Example 12, 2-[4-Methoxy-3-(4-methylpiperazin-1-yl)phenylamino]-1-(4-o-tolylpiperazin-1-yl)ethanone fumarate], the Ki on human 5HT1Dα receptor (setting [3]) was determined as 420 nM; at human 5HT1Dβ receptor [1] (setting [4]), 28 nM; at human 5HT1A receptor, 3000 nM. Further, the EC50 on human 5HT1Dβ receptor [2] (setting [6]) was greater than 1000 nM.

As to `COc1ccc(N2CCN(C(=O)Nc3ccc(OC)c(N4CCN(C)CC4)c3)CC2)cc1` [Example 3, fumarate], the Ki came out at 230 nM on human 5HT1Dα receptor (setting [3]), 8.4 nM at human 5HT1Dβ receptor [1] (setting [4]) and 1000 nM at human 5HT1A receptor (setting [5]). On human 5HT1Dβ receptor [2] (setting [6]), the EC50 was greater than 1000 nM.

Take `COc1ccc(NC(=O)N2CCN(c3cccc(C)c3C)CC2)cc1N1CCN(C)CC1` [Example 5, fumarate]: the Ki is 42 nM at human 5HT1Dα receptor (setting [3]), 1.2 nM at human 5HT1Dβ receptor [1] (setting [4]) and 557 nM on human 5HT1A receptor (setting [5]). The EC50 on human 5HT1Dβ receptor [2] (setting [6]) was greater than 1000 nM.

For `COc1ccc(NC(=O)N2CCN(c3ccccc3C)CC2)cc1N1CCN(C)CC1` [Example 1, N-[4-methoxy-3-(4-methylpiperazin-1-yl)phenyl]-4-(o-tolylpiperazin-1-ylamide fumarate], the Ki on human 5HT1Dα receptor (setting [3]) turned out to be 48 nM; at human 5HT1Dβ receptor [1] (setting [4]), 2.3 nM; at human 5HT1A receptor (setting [5]), 396 nM. Further, the EC50 on human 5HT1Dβ receptor [2] (setting [6]) is greater than 1000 nM.

`CN1CCN(c2cccc3ccc(OC(=O)N4CCN(c5ccccc5)CC4)cc23)CC1` [Example 19, 8-(4-Methylpiperazin-1-yl)naphthalen-2-yl 4-phenylpiperazin-1-yloate]: the Ki at human 5HT1Dα receptor was determined as 2.8 nM; on human 5HT1Dβ receptor [1] it was 0.5 nM; on human 5HT1A receptor (setting [5]) it was 16 nM. The compound also registered an EC50 on human 5HT1Dβ receptor [2] greater than 1000 nM.
